Results as given in patent publication US5212202A, “Therapeutic cholesterol gallstone dissolution method” (priority 1992, dated 1993).
Like-named read-outs stand apart in the source and are kept apart here.

Legend:
[1] = in words; cited from earlier work
[2] = in words; cited from earlier work; remark: listed apart in the source
[3] = cited from earlier work
[4] = in vitro dissolution of matched cholesterol gallstones from cholecystectomy patients, 30 ml polyethylene bag model gallbladder, 180 ml/min (Table II); set-up: species or system human; conditions: five stones per set; for Mean Time (complete dissolution): mean stone weight 79-340 mg, 150 ml solvent
[5] = in vitro dissolution of fresh human cholesterol gallstones in a model gallbladder at high flow rate (Table I); conditions: for Dissolution Rate / Dissolution Time: high flow rate; for Dissolution Rate: stone taken as 90% by weight cholesterol; for dissolution of cholesterol gallstones compared with MTBE: in words; for Dissolution Time: total dissolution, one stone of 132-175 mg per solvent
Description: Their efficacy and the techniques of the present invention may be seen from the following data. In the tests described in Table I below, fresh human faceted cholesterol gallstones (kept in distilled water) were dissolved in vitro and the times were recorded for the total dissolution, using a model gallbladder at a high flow rate achieved by a metering pump. "High flow rate" as used herein will mean rates of flow in the range which can be anticipated to result in fluid turbulence for the solvent in the region of the biliary tract surrounding the calculi (gallstones). While "high" rates will vary according to solvent type and viscosity and with individual patients, it will be expected that appropriate flow rates will be at least about 20 ml/min, preferably at least about 100 ml/min, and more preferably at least about 150 ml/min. For comparison purposes a parallel test with MTBE is also shown.

[6] = treatment of a human patient with gallstones by solvent perfusion; assay type: in vivo
From the text: Another aspect of the invention is the in vivo dissolution of gallstones using the C5 -C6 ester solvents provided herein as the solvent in a high flow rate pumping system, in particular a continuous pumping system controlled by gallbladder pressure feedback and employing a delivery system consisting of a catheter, a continuous flow pumping system, a controller and a tubing set; see aforesaid U.S. patent application No. 07/482,194, filed Feb. 20, 1990, to S. Zakko, incorporated herein by reference.
Such a pumping system, in combination with the low viscosity solvent provided herein, has the capability of emptying the gallbladder many times faster than the rate of normal gallbladder contraction, to prevent solvent from emptying into the intestine should such a gallbladder contraction occur during perfusion. […]
Further, should the pressure remain above (as may occur with the beginning of a gallbladder contraction) or below the upper and lower pressure limits in excess of empirically determined delays, or above or below the upper and lower pressure alarms, for the associated delays, the controller causes the system to enter into an alarm mode in which both pumps operate in the aspiration direction at maximum flow rate to remove the low viscosity solvent.

[7] = perfusion of the gallbladder of an anesthetized pig, solvent level in central venous blood by gas chromatography
[8] = cited from earlier work; remark: listed apart in the source

SMILES | Overall Rate (dissolution) [4] [mg/min] | Mean Time (complete dissolution) [4] [min] | Boiling Point ([3]; Table I) [°C] | Dissolution Rate [5] [mg/min] | dissolution of cholesterol gallstones compared with MTBE [5] | Dissolution Time [5] [min] | other results
CCCCCCCC(=O)OCC(O)CO (stereo not shown) [Monooctanoin, monooctanoin] | – | – | – | – | – | – | gallstone dissolution speed [1]: dissolves gallstones very slowly; viscosity [2]: relatively high viscosity
CCOCC [diethyl ether, reference compound] | – | – | – | – | – | – | Boiling point relative to body temperature ([3]; in words): below body temperature
CCOC(=O)C(C)C [ethyl isobutyrate] | 4.55 | 33 | 112 | 8 | rate generally comparable to that of MTBE | 15 | –
CCOC(=O)CC [ethyl propionate] | 12.22 | 14 | 99 | 13 | rate generally comparable to that of MTBE | 10 | cholesterol concentration in the solvent during the procedure, versus previous procedures using MTBE ([6]; human patient): higher than concentrations observed during previous procedures conducted using MTBE; treatment of a human patient to eliminate cholesterol gallstones ([6]; one human patient): successful treatment; blood level of solvent throughout the procedure ([7]; before, 1 h and 2 h of perfusion, 30 and 60 min after): below the level of detectability
CC(=O)OC(C)C [isopropyl acetate] | 5.48 | 26 | 89 | 9 | rate generally comparable to that of MTBE | 14 | –
COC(C)(C)C [methyl t-butyl ether] | 7.69 | 19 | 55 | 20 | – | 8 | blood level of solvent during perfusion ([7]; 10 ml, 2 h gallbladder perfusion, central vein): 0.01-0.1 μl/ml; concentration ([7]; read-out: blood level of solvent during perfusion, 10 ml, 2 h gallbladder perfusion, central vein): 84 to 840 µM; blood level of solvent after perfusion ([7]; thirty and sixty minutes following perfusion): declined after perfusion; Boiling Point [3]: 55 °C; side effects in patients ([8]; believed caused by increased blood levels of MTBE): nausea and vomiting; systemic toxicity, pain and intestinal damage on escape into the small intestine ([8]; escape from gallbladder into small intestine): signs of systemic toxicity (sedation), pain and by endoscopy, damage to the epithelium of the small intestine; effect of entry into the blood stream ([8]; in vivo): hemolysis; renal failure ([8]; reversible): one
CCCOC(C)=O [n-propyl acetate] | 4.45 | 35 | 102 | 14 | rate generally comparable to that of MTBE | 10 | –
